Experimental data from publication PMC9764067 (Acta Pharmaceutica Sinica. B, 2022).

How the values were obtained:
EBOV-GP/HIV-luc = format: cell-based, Ebola virus
[1] = system: cellular content of cholesterol; format: cell-based
EBOVpp = format: cell-based, Ebola virus

heparin
effect on uptake of viral genomic RNA (virus binding to the cell) (EBOV-GP/HIV-luc): marked inhibition

CCN(CC)CCO[C@H]1CC[C@@]2(C)C(=CC[C@@H]3[C@@H]2CC[C@]2(C)C(=O)CC[C@@H]32)C1 [U18666A]
cellular content of cholesterol [1]: cholesterol accumulation

O=C1Nc2ccc(Cl)cc2[C@@](C#CC2CC2)(C(F)(F)F)O1 [efavirenz]
inhibitory effect by time of drug addition (EBOVpp): maintained its inhibitory effect up to 8 hpi
